Source: patent publication US20220280423A1, “GLYMPHATIC DELIVERY BY MANIPULATING PLASMA OSMOLARITY” (University of Rochester, priority 2018, published 2022)

How the values were obtained:
BBB = experiment: Assessment of BBB permeability (FITC-dextran extravasation); type: in vivo, C57BL/6 mice; details: anesthetized mice, 30 min after i.p. injection
Protocol: Assessment of BBB Permeability. For quantification of BBB disruption, a 1% solution of FITC-conjugated dextran (70 kDa; Sigma-Aldrich) in normal saline (4 mL/kg of body weight) was injected via the femoral vein. The dextran was allowed to circulate for 30 min following plasma tonicity manipulations, at which point a plasma sample was taken and the mice were perfusion-fixed as described below. Positive controls received a 2M mannitol infusion via a catheter in the right external carotid artery (0.64 mL/min for 30 seconds) 5 minutes after the dextran. The brains were harvested, sectioned, and FITC extravasation was imaged and quantified (see below). Plasma concentration of the FITC dextran was calculated by diluting the plasma samples 1:4 with PBS and analyzing them in triplicate on a fluorescence microplate reader (SpectraMax M2, Molecular Devices) at 458 nm excitation, 538 nm emission, with a cutoff above 530 nm at room temperature (24° C.). Dextran concentration was estimated by comparing the relative fluorescence of the samples against a standard curve (0.0-1.0 mg/mL, 0.1 mg/mL steps; FITC-dextran 70 kDa in PBS) fitted with a linear regression. Blood samples with hemolysis were excluded from analysis due to interference with spectrophotometric absorbance readings.
Image Analysis. All images were analyzed using ImageJ software (National Institutes of Health, imagej.nih.gov/ij/) (60). […]

[1] = Intracranial pressure, arterial blood pressure and laser Doppler cerebral blood flow; type: in vivo, C57BL/6 mice
Excerpt: Intracranial and Arterial Blood Pressure Measurements. A separate group of animals were anesthetized with a mixture of ketamine/xylazine. Afterwards, a 30 G needle connected to rigid polyethylene tubing filled with aCSF was inserted into the cisterna magna as described above and an arterial catheter was placed in the femoral artery. The lines were connected to a pressure transducer and monitor (World Precision Instruments). Recordings were allowed to stabilize, and then recorded continuously for 35 min (5 min baseline and 30 min after i.p. injection). The signals were digitized and recorded with a DigiData 1440A digitizer and AxoScope software (Axon Instruments). The intracranial and mean arterial pressure recordings were processed and analyzed using MATLAB (MathWorks).
Laser Doppler Flowmetry. Relative changes in cerebral blood flow (rCBF) were measured using laser Doppler flowmetry (PF5010 Laser Doppler Perfusion Module with microtips, PR 418-1, Perimed). The tip of the fiber optic probe was fixed directly onto the exposed skull with cyanoacrylate glue. Signals were collected using a 1440A digitizer and AxoScope software (Axon Instruments). For each mouse, rCBF was recorded both 5 minutes before and 30 minutes after the administration of i.p. solutions. The rCBF recordings were processed and analyzed using MATLAB (MathWorks).
Consequently, assays were carried out to determine if tonicity-induced changes in one of these parameters might be responsible for the observed enhancement of glymphatic CSF influx. […] This net negative ICP resulted from the outflow of ISF across the BBB (FIG. 15D), and likely provided the necessary driving force to increase CSF influx to cerebral tissues. Importantly. this transfer of brain water to the vascular column occurred across an intact BBB (FIGS. 12A-C).

[2] = Plasma osmolality after intraperitoneal injection; type: in vivo, C57BL/6 mice; details: i.p., KX-anesthetized mice, lasting 30 minutes
Protocol: Solutions. Control mice received isosmotic saline ([…]; 20 μL/g, i.p.). Hyperosmolality was induced either with mannitol (1M in 0.34M NaCl; 30 μL/g, i.p.) or hypertonic saline (1M NaCl in ddH2O; 20 μL/g, i.p.). Thirty minutes after intraperitoneal injection, a plasma sample was taken, and the mouse decapitated. Plasma osmolality was measured in triplicate using a micro-osmometer (Advanced Instruments).

glymphatic CSF influx [3] = experiment: Transcranial macroscopic imaging of CSF tracer (BSA-647) influx, plasma hypertonicity in awake mice; type: in vivo, C57BL/6 mice
Protocol: Intracisternal injections. Mice in the KX groups were weighed and anesthetized with a mixture of ketamine (100 mg/kg, i.p.) and xylazine (10 mg/kg, i.p.). Afterwards, animals were fixed in a stereotaxic frame, and the cisterna magna was surgically exposed with the help of a stereomicroscope. The cisternal space was cannulated using a 30 G needle attached via polyethylene tubing to a Hamilton syringe. The needle was secured with cyanoacrylate glue and tracers were infused with a syringe pump (Harvard Apparatus) depending on the experimental paradigm (see below). […]
Transcranial In vivo Macroscopic Imaging. […] The entry of CSF tracers into the brain was imaged by fluorescence macroscopy (MVX10, Olympus) using a PRIOR Lumen 1600-LED light source and Flash 4.0 digital camera (Hamamatsu). […]
Front tracking. To quantify the area and speed of fluorescent CSF tracer influx in the brain, inventors employed an algorithm recently developed in the context of advection-reaction-diffusion (56). […] The algorithm outputs spatially- and temporally-resolved velocity measurements quantifying the front propagation. Influx speed was calculated by averaging over the entire group data to obtain mean front speed measurements for each group. […] A fixed threshold preserved the physical meaning of the front and allowed for quantitative comparison between populations from different experiments. […]

glymphatic CSF influx [4] = experiment: Transcranial macroscopic imaging of CSF tracer (BSA-647) influx, plasma hypertonicity in KX-anesthetized mice; type: in vivo, C57BL/6 mice
Protocol: Intracisternal injections. Mice in the KX groups were weighed and anesthetized with a mixture of ketamine (100 mg/kg, i.p.) and xylazine (10 mg/kg, i.p.). Afterwards, animals were fixed in a stereotaxic frame, and the cisterna magna was surgically exposed with the help of a stereomicroscope. The cisternal space was cannulated using a 30 G needle attached via polyethylene tubing to a Hamilton syringe. The needle was secured with cyanoacrylate glue and tracers were infused with a syringe pump (Harvard Apparatus) depending on the experimental paradigm (see below). Mice randomized to the awake group were anesthetized with 2% isoflurane, their skull cemented to a customized head plate, placed in a restraint tube, and then underwent the same surgical procedure as described above. Tracers were allowed to circulate for 30 min after the injection start time and the needle left in place for the duration of the experiment to prevent the CSF compartment from depressurizing. Core temperature (37° C.) and anesthetic depth were maintained throughout the experiment. At the end of 30 min, animals were decapitated, and the brain processed for either fluorescent or radioisotope tracer analysis.
CSF Tracers. AlexaFluor647-conjugated bovine serum albumin (BSA-647, 66 kDa, Invitrogen) was constituted in artificial CSF (0.5% m/v) and used as a fluorescent CSF tracer. […] Fluorescent tracers and antibodies were infused in a total volume of 10 μl at a rate of 2 μl/min or 1 μl/min into the cisterna magna.
Transcranial In vivo Macroscopic Imaging. For in vivo imaging, the skin covering the dorsal calvarium was incised and reflected laterally prior to cannulating the cisterna magna. The entry of CSF tracers into the brain was imaged by fluorescence macroscopy (MVX10, Olympus) using a PRIOR Lumen 1600-LED light source and Flash 4.0 digital camera (Hamamatsu). The mouse fixed on the stereotaxic frame was placed on the microscope stage and images at 20× magnification were acquired in the far-red emission channel (647 nm). Images (2048×2048 pixel; 5.7120 μm/pixel) were collected at 1 min intervals for 0-30 min following injection commencement using the MetaMorph Basic imaging software (Molecular Devices). Exposure time was held constant throughout the duration of the imaging sequence and across experimental groups.
Front tracking. To quantify the area and speed of fluorescent CSF tracer influx in the brain, inventors employed an algorithm recently developed in the context of advection-reaction-diffusion (56). Given a time series of a two-dimensional concentration field, this algorithm tracked the location of the “front” which separates low-concentration and high-concentration regions. The algorithm outputs spatially- and temporally-resolved velocity measurements quantifying the front propagation. Influx speed was calculated by averaging over the entire group data to obtain mean front speed measurements for each group. The propagation front was identified using a threshold of 175 (on an 8-bit scale of 0 to 255); however, it was noted that the results were fairly robust to different threshold choices. This same threshold was used for all-time series of images, which was justified since care was taken to maintain similar imaging conditions across all experiments. A fixed threshold preserved the physical meaning of the front and allowed for quantitative comparison between populations from different experiments.
Solutions. Control mice received isosmotic saline (0.34M NaCl in ddH2O; 20 μL/g, i.p.).

[5] = Radioisotope influx (brain uptake of CSF-delivered tracers); details: 30 min
Protocol: Fluorescent tracers and antibodies were infused in a total volume of 10 μl at a rate of 2 μl/min or 1 μl/min into the cisterna magna. Radioisotope tracers were infused in a total volume of 5 μl at 1 μl/min.
Radioisotope Influx. […] After 30 min, animals were rapidly decapitated, the skull and dura removed, and the brain harvested. Brain radioactivity was normalized to the total radioactivity detected in a 5 μL aliquot put directly into a scintillation vial immediately before intracisternal injection. All brain tissue was weighed and solubilized in 0.5 mL tissue solubilizer (Solvable, PerkinElmer) overnight. Upon solubilization, 5 mL of scintillation cocktail was added (Ultima Gold, PerkinElmer). The injectate controls were treated in the same way as the tissue samples. All samples were analyzed by liquid scintillation spectrometry using a scintillation counter (LS 6500 Multipurpose Scintillation Counter, Beckman Coulter). The radioactivity (disintegrations per minute: dpm) remaining in the brain after injection (percent of injected dose: %ID) was determined as
where Rb is the radioactivity remaining in the brain at the end of the experiment and Ri is the radioactivity in the injectate controls for each experiment. Influx percentage was deduced as % ID. […]

Row | BBB permeability (BBB) | Molecule | relative cerebral blood flow (rCBF) ([1]; 30-min recording after i.p.) | ICP relative to the isotonic controls ([1]; 30 min after i.p.) | mean arterial blood pressure (MAP) ([1]; anesthetized mice, i.p.) | plasma osmolality [2] | tracer influx rates across the entire dorsal cortex, faster than isotonic (glymphatic CSF influx [3]) | increase in tracer influx area (glymphatic CSF influx [3]; at 30 min) | reduction of the time to delivery of CSF tracer (glymphatic CSF influx [4]; KX-anesthetized mice, i.p.) | dorsal cortical surface covered by CSF tracer (glymphatic CSF influx [4]; KX-anesthetized mice, i.p., 30 min imaging) | increase in the influx area of CSF tracer (glymphatic CSF influx [4]; KX-anesthetized mice, i.p., vs isotonic controls) | penetration of an intracisternally-delivered CSF tracer (glymphatic CSF influx [4]; intraperitoneal) | increase of influx speeds of CSF tracer (glymphatic CSF influx [4]; intraperitoneal, intracisternally-delivered CSF tracer) | increase in the fractional tracer uptake to brain ([5]; plasma hyperosmolality (HTS or mannitol i.p.) vs isotonic) | total injected tracer delivered to the brain parenchyma ([5]; plasma hyperosmolality (HTS or mannitol i.p.))
1 | no significant increase | OC[C@@H](O)[C@@H](O)[C@H](O)[C@H](O)CO [mannitol] | slight reduction | significantly and consistently declined | reduced | significantly elevated | roughly 1.5 fold | circa 20 fold | roughly half | approximately 60% | five-fold | doubled | about 70% |  | 
2 |  | ^14C-inulin |  |  |  |  |  |  |  |  |  |  |  | roughly 125% | approximately 40%
